Measured values: patent US20090162351A1, “Transdiscal administration of inhibitors of p38 MAP kinase” (DePuy Spine, Inc., priority 2007, published 2009)
Several values for one entry are separate records, joined by “and”; a condition that tells them apart may be missing. Equal values may be shown once. Entries after “also recorded” stand apart in the source; their conditions may differ. Read-outs that look alike come from different tables or passages of the source.

Columns and labels:
[1] = tested on: bovine chondrocyte pellets / ARC tissues stimulated with IL-1β; test: Chondrocyte pellet / ARC culture model: GAG degradation assay; format: cell-based; settings: for concentration as low as which proteoglycan degradation was inhibited: chondrocyte pellets, 10 ng/ml IL-1β, five days; for effect on IL-1β-stimulated GAG degradation/release (in words): chondrocyte pellet / ARC model; for GAG Release, Pellet Assay (in words): Table 3B
From the text: A chondrocyte pellet culture model was developed for in vitro high throughput screening of therapeutic compounds for inhibition of IL-1β-stimulated matrix degradation. The chondrocyte pellet culture model can be used to detect various potential therapeutic compounds effective in blocking different processes caused by IL-1β stimulation. For example, IL-1β stimulation results in increased glycosaminoglycan (GAG) degradation, prostaglandin E2 (PGE2) synthesis and total nitrite/nitrate production. Compounds with different mechanisms of action may inhibit the increase of one or two or all three of these parameters. For this reason, screening by, for example, measuring only GAG release would be limited to detection of a specific class of inhibitors and may not detect compounds with diversified mechanisms of function which may be involved in inhibition of the IL-1 stimulated inflammatory process. The development of the chondrocyte pellet culture assay system in a 96-well plate made possible large-scale screening of potential therapeutic compounds with different mechanisms of action.
(§1) Calf articular cartilage was obtained from the knee joints of eight to twelve month old animals and was processed within twenty-four hours after sacrifice. After removal of muscle and ligament, the cartilage was kept moist using phosphate buffer solution (PBS) to prevent tissue dehydration, and was aseptically peeled off from subchondral bone with a scalpel, and the cartilage pieces were further minced into smaller pieces (˜0.3-0.5×˜0.2-0.5 cm cubes). […] Chondrocytes were then enzymatically isolated from the tissue by incubation for overnight at 37° C. with gentle agitation in 0.2% collagenase in Dulbecco's modified eagle media (DMEM). After removal of tissue debris by filtration through cell strainer and the residual collagenase by 3× wash in PBS, cells were finally resuspended at a density of 2.5×10^6 cells/ml in chondrocyte medium. A 1 ml aliquot of the cell suspension was dispensed into either a 15 ml Falcon centrifuge tube or a 96 deep-well plate and centrifuged at 2000×g for five minutes. The chondrocyte pellets were incubated at 37° C. in a humidified atmosphere of 5% CO2 for two to three weeks with a medium change every other day.
(§2) As an alternative to using calf articular cartilage, a commercial Aliginate Recovered Chondrocytes (ARC) system was also used (Articular Engineering, LLC (Northbrook, Ill.)). Use of the commercial system cut down on labor and time in producing chondrocyte pellet. This system produced cartilaginous tissue in vitro using bovine chondrocytes. The first step consisted of culturing chondrocytes in alginate under conditions optimal for the formation of a cell-associated matrix (CM). The second step allowed these cells with their CM, after recovery, to rapidly form and become integrated into a solid mass of cartilage on a porous insert within two weeks.
This tissue is rich in cells surrounded by a cell-associated matrix that is degraded rapidly when the cells are exposed to IL-1. ARC tissues in 3 mm punches at delivery were first dispensed into a 96 deep-well plate, one punch per well, for compound treatment. The subsequent procedures were the same as those used for the chondrocyte pellets.
(§3) Chondrocyte pellets were washed once with 1 ml of Chondrocyte Stimulation Medium and equilibrated in the same medium at room temperature for fifteen to thirty minutes. Compounds were dissolved in H2O, Ethanol or dimethyl sulfoxide (DMSO) (10^−2 M) according to suppliers' instructions and further diluted with Chondrocyte Stimulation Medium to the required concentrations. DMSO concentrations in the culture media should not exceed 1%; this concentration of DMSO has no effect on cartilage proteoglycan metabolism in response to cytokines.
The pellets were first treated with compounds at desired concentrations at 37° C. for one hour and then incubated for three to five days in the absence or presence of 10 ng/ml of IL-1β. […]

[2] = tested on: IL-1β-stimulated NO production in bovine chondrocyte pellets / ARC tissues; test: Chondrocyte pellet / ARC culture model: total nitrite and nitrate assay; format: cell-based; settings: for effect on IL-1β-stimulated NO production (in words): chondrocyte pellet / ARC model
From the text: as §1, §2, §3
(§4) The pellets were first treated with compounds at desired concentrations at 37° C. for one hour and then incubated for three to five days in the absence or presence of 10 ng/ml of IL-1β. At the end of the incubation, media and pellets were harvested and frozen for further analysis. Pellets were also fixed as needed in 4% (w/v) paraformaldehyde in PBS for histology analysis.
Nitrate/Nitrite levels were measured using the Griess reaction (Green L. C. et al., “Analysis of Nitrate, Nitrite, and [15N]nitrate in Biological Fluids,” Anal. Biochem. 126: 131-138 (1982)) with a Nitrate/Nitrite Colorimetric Assay Kit (Cayman Chemicals), the contents of which are incorporated herein by reference. The assay involved a simple two-step process. The first step involved conversion of nitrate in 50 μl of culture medium to nitrite utilizing nitrate reductase in a reaction volume of 100 μl at room temperature for two hours. The second step involved the addition of 50 μl of both Griess Reagent 1 and 2, which converted nitrite into a deep purple azo compound in ten minutes. Photometric measurement of the absorbance at 540 or 550 nm due to this azo chromophore accurately determined nitrite concentration. This assay kit cannot be used for RPMI (Roswell Park Memorial Institute) derived tissue culture medium due to interference with the colorimetric reaction.
(§5) To characterize the relative efficacies among different p38 MAP kinase inhibitors, dose-response curves were generated for both PGE2 and NO assays. […] After one hour of treatment, ARCs were stimulated with or without 7.5 ng/ml IL-1β and continued to incubate for five days before assay. […]

chondrocytes = format: cell-based
Procedure: The LDH activity was determined calorimetrically in an enzymatic test based on the conversion of lactic acid to pyruvate in the presence of chromagenic substrate tetrazolium salt INT that was reduced to formazan.

[3] = tested on: injured bovine cartilage explants
From the text: Bovine articular cartilage was obtained from the knee joints of adult, eighteen to twenty-four month old animals and processed within twenty-four hours after sacrifice. […] Care was taken to consistently prepare the same thickness of bone layer. The cartilage-on-bone specimens were subjected to an impact. […] After each impact, the cartilage area with a visible indent of ˜0.5-1 mm in the center was punched out with a 3 mm diameter puncher and immediately soaked in PBS with 1× Antibiotic-Antimycotic. Throughout the impact procedure and preparation of specimens, the cartilage was kept moist using PBS to prevent tissue dehydration. The cartilage discs were sterilized through 3× one hour wash in PBS with 10× Antibiotic-Antimycotic followed by 1×0.5 hour wash in PBS with 1× Antibiotic-Antimycotic. After wash, the specimens were incubated with conditioned medium harvested from peripheral blood mononuclear cells (PBMC) stimulated with or without LPS and at the same time, were treated with or without compounds for five days at 37° C., 5% CO2. Culture medium was collected for GAG release, NO and PGE2 assays, and assessment for cytotoxicity.
Cell death was assessed by measuring the amount of lactate dehydrogenase (LDH) in the culture supernatant. 10-20 μl of culture medium was incubated with the reaction mixture from the Cytotoxicity Detection Kit (LDH, Roche), as described in Example III above. The amount of formazan formed was measured at 500 nm, which was proportional to the number of dead cells. Since no purified LDH was available for a standard curve at each measurement, an LDH level for 100% dead cells was measured in each experiment. The lysate for the dead cells was prepared as follows: Chondrocytes were enzymatically isolated as described earlier and about 0.1 million cells that were equivalent to the number of cells contained in a 3-mm punch of fresh cartilage explant were lysed in 1 ml of PBS with 1% Triton-100. Approximately 10-20 μl of the lysate was used in the assay as killed cell control. […]

[4] = tested on: IL-1β-stimulated PGE2 synthesis in bovine chondrocyte pellets / ARC tissues; test: Chondrocyte pellet / ARC culture model: Prostaglandin E2 assay; format: cell-based; settings: for PGE2 synthesis (in words): diacerein at 5.4 μM, rhein at 0.35 μM, 10 ng/ml IL-1β; for effect on IL-1β-stimulated PGE2 synthesis (in words): chondrocyte pellet / ARC model; for maximum inhibition of PGE2: bovine ARC tissues, IL-1β
From the text: as §1, §2, §3, §4
Prostaglandin E2 (PGE2) was measured with a STAT-Prostaglandin E2 EIA ELISA kit (Cayman Biochemicals). This assay is based on the competition between PGE2 from 50 μl samples and a PGE2-alkaline phosphatase conjugate for a limited amount of PGE2 monoclonal antibody in a reaction volume of 150 μl at room temperature for one hour. The antibody-PGE2 complex bound to a goat polyclonal anti-mouse IgG that had been previously attached to the well. After washing to remove any unbound reagents, para-nitrophenyl phosphate (pNPP) was added to the well. The product of this enzymatic reaction absorbs strongly at 412 nm. Because of the large range in response to IL-1β and other cytokines, PGE2 values were converted to log scale prior to doing t-tests.
as §5, with “assay. The IL-1β-stimulated PGE2 synthesis or NO production was first calculated by subtraction of PGE2/NO levels in the absence of IL-1β from that in the presence of IL-1β.” for “assay.”

Water solubility = format: physicochemical
[5] = Bos taurus, Chondrocyte, read-out: GAG Release (inhibition), Pellet Assay
[6] = Bos taurus, Chondrocyte, 120 h, bovine ARCs, 7.5 ng/ml IL-1β, five days, sigmoidal dose-response fit, read-out: NO, IC50
[7] = chondrocyte pellet / ARC model, within the tested concentrations
[8] = Bos taurus, Chondrocyte, 120 h, bovine ARCs, 7.5 ng/ml IL-1β, five days, sigmoidal dose-response fit, read-out: PGE2, IC50
[9] = Bos taurus, Chondrocyte, Table 3B, read-out: PGE2 Inhibition, Pellet Assay, IC50
[10] = Bos taurus, Chondrocyte, at 0.5 μM
[11] = bovine ARCs, 7.5 ng/ml IL-1β, five days, sigmoidal dose-response fit, read-out: NO, IC50
[12] = bovine ARCs, 7.5 ng/ml IL-1β, five days, sigmoidal dose-response fit, read-out: PGE2, IC50

| Structure (SMILES) | cytotoxicity to chondrocytes, LDH (in words) (chondrocytes) | inhibition at 10 µM [1, 5] [%] | effect on IL-1β-stimulated GAG degradation/release (in words) [1] | effect on IL-1β-stimulated NO production (in words) [2] | water solubility (in words) (Water solubility) | cytotoxicity to chondrocytes, LDH (in words) (chondrocytes; [7]) | IC50 [4, 9] [nM] | effect on IL-1β-stimulated PGE2 synthesis (in words) [4] | GAG Release, Pellet Assay (in words) [1] | IC50 [2, 11] | IC50 [4, 12] | also measured |
| --- | --- | --- | --- | --- | --- | --- | --- | --- | --- | --- | --- | --- |
| CC(=O)Oc1cccc2c1C(=O)c1c(OC(C)=O)cc(C(=O)O)cc1C2=O [Diacerein, reference compound] | cytotoxicity at higher concentrations | – | – | – | – | – | – | – | – | – | – | concentration as low as which proteoglycan degradation was inhibited [1]: 0.054 µM; inhibitory effect for GAG vs lower concentrations (in words) ([1]; diacerein at 5.4 μM, rhein at 3.5 μM): weaker inhibitory effect; NO production (in words) ([2]; diacerein at 5.4 μM, rhein at 0.35 μM, 10 ng/ml IL-1β, five days): significantly inhibited; cytotoxicity, LDH (in words) [3]: tolerant; PGE2 synthesis (in words) ([4]; five days): no effect |
| OCCC#Cc1nc(-c2ccc(F)cc2)c(-c2ccncc2)n1CCCc1ccccc1 [JNJ 3026582 (RWJ 67657), 4-[4-(4-fluorophenyl)-1-(3-phenylpropyl)-5-(4-pyridinyl)-1H-imidazol-2-yl]-3-butyn-1-ol] | – | ~90 | significantly inhibited; also recorded: significant effect | inhibited | poor water solubility | little cytoxicity | 421 | inhibited | – | – | – | IC50 [2, 6]: 119 nM; IC50 ([2]; Bos taurus, Chondrocyte, Table 3B, read-out: NO Inhibition, Pellet Assay, IC50): 119 nM; pH at which soluble (Water solubility): < 2; solubility in 0.1 M HCl (in words) (Water solubility; 0.1 M HCl): soluble in 0.1 M HCl; IC50 [4, 8]: 421 nM |
| C[C@H](Nc1nccc(-c2c(-c3ccc(F)cc3)nc3nc(N)ccn23)n1)c1ccccc1 [JNJ 7583979 (RWJ 351958)] | – | 64 | significantly inhibited; also recorded: significant effect | significantly inhibited | poor water solubility | little cytoxicity | – | significantly inhibited | – | – | – | inhibition at 1 µM ([1]; Bos taurus, Chondrocyte, at 1 μM, read-out: GAG Release (inhibition), Pellet Assay): 10%; inhibition at 0.5 µM [2, 10]: 50%; solubility (Water solubility; water (aqueous, simulated gastric fluid), at pH 2, read-out: solubility): > 1 mg/mL; inhibition at 0.5 µM [4, 10]: 100% |
| CC(=O)N1CCN(c2c(-c3ccncc3)c(-c3ccc(F)cc3)c(C#N)n2C)CC1 [JNJ 17089540 (RWJ 669307)] | little cytoxicity | – | little effect | weaker inhibitor | – | – | – | – | No effect | 4920 nM | 29600 nM | IC50 ([2]; Table 3B, read-out: NO Inhibition, Pellet Assay, IC50): 4900 nM; water solubility (Water solubility; of HCl salt): > 100 mg/mL; IC50 ([4]; Table 3B, read-out: PGE2 Inhibition, Pellet Assay, IC50): 29600 nM |
| O=C(O)c1cc(O)c2c(c1)C(=O)c1cccc(O)c1C2=O [Rhein, reference compound] | higher toxicity | – | – | – | – | – | – | – | – | – | – | concentration as low as which proteoglycan degradation was inhibited [1]: 0.035 µM; cytotoxicity, LDH (in words) [3]: tolerant; PGE2 synthesis (in words) ([4]; five days): no effect |
| C[C@@H]1CN(Cc2ccc(F)cc2)[C@@H](C)CN1C(=O)c1cc2cc(C(=O)C(=O)N(C)C)[nH]c2cc1Cl [SCIO-282 (SD 282)] | – | – | little effect | inhibited | limited water solubility | little cytoxicity | – | inhibited | No effect | 74 nM and 74.4 nM | 583 nM and 582 nM | maximum inhibition of PGE2 [4]: 96% |
| C[C@@H]1CN(Cc2ccc(F)cc2)[C@@H](C)CN1C(=O)c1cc2c(C(=O)C(=O)N(C)C)cn(C)c2cc1Cl [SCIO-469 (SD 469)] | – | – | no effect | – | – | – | 18 | – | No effect | 18 nM | 107 nM | IC50 [2, 6]: 18 nM; IC50 ([2]; Bos taurus, Chondrocyte, Table 3B, unit inferred, read-out: NO Inhibition, Pellet Assay, IC50): 107 nM; increase of LDH level (chondrocytes; bovine, 100000 nM): 121%; IC50 [4, 8]: 107 nM; maximum inhibition of PGE2 [4]: 62% |
| CC(C(=O)O)c1ccc(C(=O)c2cccs2)cc1 (stereo not drawn) [Suprofen, reference compound] | – | – | – | – | – | – | 0.812 | – | No effect | – | – | inhibition at 10 µM ([2]; Bos taurus, Chondrocyte): 20% |
| COc1ccc(-n2nc(CCC(=O)N(C)O)cc2-c2ccc(Cl)cc2)cc1 [Tepoxalin, reference compound] | – | 15 | – | – | – | – | 3280 | – | – | – | – | inhibition at 10 µM ([2]; Bos taurus, Chondrocyte): 50% |
| Cc1ccc(C(=O)c2ccc(CC(=O)O)n2C)cc1 [Tolmetin, reference compound] | – | – | – | – | – | – | 673 | – | No effect | – | – | NO Inhibition, Pellet Assay (in words) ([2]; Table 3B): No effect |
